The source of these data is PMC9653470 (2022).

Entries after “also recorded” stand apart in the source; their conditions may differ.

A short description of this series: fresh human plasma. The settings on record: 37 °C, up to 24 hours.

For the substance H2N-USPGYS-NH2, the fragment found result was “a, major; also recorded: b, major”.
